This note sets out measurements from patent US20170145005A1, “KINASE INHIBITOR” (THE UNIVERSITY OF TOKYO, priority 2014, published 2017).

One assay has as its target PIM-3 kinase (Homo sapiens, UniProt Q86V86). As to the kind of experiment: Measurement of PIM-3 kinase inhibitory activity (fluorescent substrate peptide, capillary electrophoresis). The assay is classed as biochemical. To be noted: 30 μM ATP, 2 hours at room temperature. Here is the method:
1.5 μM of fluorescent substrate peptide (FAM-AKRRRLSSLRA-COOH), 30 μM of ATP, and 0.0833 ng/μL of PIM-3 kinase were incubated with a compound for 2 hours at room temperature, and the Pim-3 kinase activity was measured. The reaction was quantified by separating the substrate and phosphorylation reaction product by capillary electrophoresis (using a Perkin-Elmer EZ reader II) based on the difference in their charges. The results are shown below in Tables 1 and 2.

Assay [1] relates to MiaPaca-2. As to the kind of experiment: Growth inhibitory activity on human pancreatic cancer cell lines (Example 2, WST-8). Type of assay: cell-based. The settings on record: cultured for 72 hours, 2000 cells/well. How it is done: (§1) Two thousand cells of human pancreatic cancer cells lines (L3.6pl, MiaPaca-2, PANC-1, PCI35, PCI66) were seeded in a medium volume of 100 μL in each well of a 96-well microtiter plate. The medium was removed after 18 hours, and 100 μL/well of medium containing the test compound was added. Culture was continued for 72 or 96 hours. The medium containing the test compound was removed, and 100 μL/well of medium containing 10% WST-8 (Dojindo Laboratories Cell Counting kit-8) was added. After culturing for one hour, the OD 450 nm absorbance was measured, and the cell growth inhibitory activity was calculated. Furthermore, RPMI-1640 medium (Sigma) was used as the medium with 10% fetal calf serum (Invitrogen), 50 U/mL penicillin G (Sigma), and 50 μg/mL streptomycin (Sigma) added. The cell lines were cultured at 37° C. in a carbon dioxide incubator with a carbon dioxide concentration of 5%.
(§2) Tables 3 and 4 show the results of compound evaluation when cultured for 96 hours.

The test system of assay [2] is L3.6pl. The description is as above. Type of assay: cell-based. The settings on record: cultured for 72 hours, 2000 cells/well. How it is done: as §1, §2
For assay [3], the system named is PANC-1. The description is as above. The assay is classed as cell-based. The settings on record: cultured for 72 hours, 2000 cells/well. Here is the method: as §1, §2
Assay [4] concerns MiaPaca-2. Briefly: Growth inhibitory activity on human pancreatic cancer cell lines (Example 4, WST-8). The assay is classed as cell-based. To be noted: MIA PaCa-2, Example 4: 72 hours, 3000 cells/well. How it is done:
(§3) Three thousand cells of human pancreatic cancer cell lines (L3.6pl, MiaPaca-2, PANC-1, PCI35, and PCI66) were seeded in a medium volume of 90 μL in each well of a 96-well microtiter plate. After 24 hours, 10 μL/well of medium containing the test compound was added. Culture was continued for 72 hours, and 10 μL/well of WST-8 (Dojindo Laboratories Cell Counting kit-8) was added. After culturing for 2 hours, the OD 450 nm absorbance was measured, and the cell growth inhibitory effect was calculated. The cell lines were cultured in a carbon dioxide incubator with a carbon dioxide concentration of 5%.

For the next assay, the system named is PCI66. The assay is described as above. Type of assay: cell-based. To be noted: Example 4: 72 hours, 3000 cells/well. How it is done: as §3
In another assay the test system is PCI35. Described as above. The assay is classed as cell-based. To be noted: Example 4: 72 hours, 3000 cells/well. Here is the method:
as §3

Assay [5] relates to L3.6pl. The assay is described as above. To be noted: Example 4: 72 hours, 3000 cells/well. The assay is classed as cell-based. Here is the method: as §3
Assay [6] concerns PANC-1. The assay is described as above. The assay is classed as cell-based. The settings on record: Example 4: 72 hours, 3000 cells/well. How it is done: as §3

The structures appear in SMILES notation.

`COc1ccc2c(c1CN1CCNCC1)O/C(=C\c1n[nH]c3nc(C)ccc13)C2=O` [Compound 7, (Z)-6-methoxy-2-[(6-methyl-1H-pyrazolo[3,4-b]pyridin-3-yl)methylene]-7-(piperazin-1-ylmethyl)benzofuran-3(2H)-one] showed a concentration for half-maximal inhibition (IC50) against PIM-3 kinase of 2.8 nM.
Consider `COc1ccc2c(c1CN1CCNC[C@H]1C)O/C(=C\c1n[nH]c3ncccc13)C2=O` [Compound 8, (R,Z)-2-[(1H-pyrazolo[3,4-b]pyridin-3-yl)methylene]-6-methoxy-7-[(2-methylpiperazin-1-yl)methyl]benzofuran-3(2H)-one], for which the half-inhibitory concentration (IC50) stood at 3500 nM in the assay on MiaPaca-2 [1] (Homo sapiens, MIA PaCa-2); 3500 nM in the assay on L3.6pl [2] (Homo sapiens, L3.6pl, 72 h); 12000 nM with PANC-1 [3] (Homo sapiens, PANC-1, 72 h); 38 nM against PIM-3 kinase.
In the case of `COc1ccc2c(c1CN1CCNC[C@@H]1C)O/C(=C\c1n[nH]c3ncccc13)C2=O` [Compound 9, (S,Z)-2-[(1H-pyrazolo[3,4-b]pyridin-3-yl)methylene]-6-methoxy-7-[(2-methylpiperazin-1-yl)methyl]benzofuran-3(2H)-one], the IC50 came to 3000 nM in the assay with MiaPaca-2 [1] (Homo sapiens, MIA PaCa-2); 4000 nM in the assay with L3.6pl [2] (Homo sapiens, L3.6pl, 72 h); 12000 nM in the assay with PANC-1 [3] (Homo sapiens, PANC-1, 72 h); 8.4 nM at PIM-3 kinase.
In the same order, the values of `COc1ccc2c(c1CN1C[C@@H](C)N[C@@H](C)C1)O/C(=C\c1n[nH]c3ncccc13)C2=O` [Compound 10, (Z)-2-[(1H-pyrazolo[3,4-b]pyridin-3-yl)methylene]-7-[(cis-3,5-dimethylpiperazin-1-yl)methyl]-6-methoxybenzofuran-3(2H)-one] are 3000 nM, 7500 nM, 14000 nM and 19 nM.
In the case of `COc1ccc2c(c1CN1CCN[C@@H](C)C1)O/C(=C\c1n[nH]c3ncccc13)C2=O` [Compound 11, (S,Z)-2-[(1H-pyrazolo[3,4-b]pyridin-3-yl)methylene]-6-methoxy-7-[(3-methylpiperazin-1-yl)methyl]benzofuran-3(2H)-one], the IC50 with MiaPaca-2 [1] (Homo sapiens, MIA PaCa-2) was determined as 3400 nM; in the assay on L3.6pl [2] (Homo sapiens, L3.6pl, 72 h), 3500 nM; with PANC-1 [3] (Homo sapiens, PANC-1, 72 h), 8300 nM; at PIM-3 kinase, 1.4 nM.
In the same order, the values of `COc1ccc2c(c1CN1CCN[C@H](C)C1)O/C(=C\c1n[nH]c3ncccc13)C2=O` [Compound 12, (R,Z)-2-[(1H-pyrazolo[3,4-b]pyridin-3-yl)methylene]-6-methoxy-7-[(3-methylpiperazin-1-yl)methyl]benzofuran-3(2H)-one] are 3200 nM, 3500 nM, 8200 nM and 7.9 nM.
In the same order, the values of `COc1ccc2c(c1CN1[C@H](C)CNC[C@@H]1C)O/C(=C\c1n[nH]c3ncccc13)C2=O` [Compound 13, (Z)-2-[(1H-pyrazolo[3,4-b]pyridin-3-yl)methylene]-7-[(cis-2,6-dimethylpiperazin-1-yl)methyl]-6-methoxybenzofuran-3(2H)-one] are 2400 nM, 3500 nM, 8400 nM and 150 nM.
For `COc1ccc2c(c1CN1CC[C@H](N)C1)O/C(=C\c1n[nH]c3ncccc13)C2=O` [Compound 14, (S,Z)-2-[(1H-pyrazolo[3,4-b]pyridin-3-yl)methylene]-7-[(3-aminopyrrolidin-1-yl)methyl]-6-methoxybenzofuran-3(2H)-one], on PIM-3 kinase, the midpoint of inhibition, the IC50, lay at 1 nM.
As to `COc1ccc2c(c1CN1CC[C@@H](N)C1)O/C(=C\c1n[nH]c3ncccc13)C2=O` [Compound 15, (R,Z)-2-[(1H-pyrazolo[3,4-b]pyridin-3-yl)methylene]-7-[(3-aminopyrrolidin-1-yl)methyl]-6-methoxybenzofuran-3(2H)-one], at PIM-3 kinase, inhibition was half-maximal at 1.6 nM (IC50).
On the same count and under the same terms, the figure for `COc1ccc2c(c1CC1CCNCC1)O/C(=C\c1n[nH]c3nc(C)ccc13)C2=O` [Compound 16, (Z)-6-methoxy-2-[(6-methyl-1H-pyrazolo[3,4-b]pyridin-3-yl)methylene]-7-(piperidin-4-ylmethyl)benzofuran-3(2H)-one] is 0.7 nM.
For the compound `O=C1/C(=C/c2n[nH]c3ncccc23)Oc2c1ccc(OC(F)F)c2CC1CCNCC1` [Compound 17, (Z)-2-[(1H-pyrazolo[3,4-b]pyridin-3-yl)methylene]-6-(difluoromethoxy)-7-(piperidin-4-ylmethyl)benzofuran-3(2H)-one], the half-maximal inhibitory concentration (IC50) with MiaPaca-2 [4] turned out to be 3200 nM; with PCI66, 18000 nM; in the assay with PCI35 it was 9300 nM; with L3.6pl [5] it was 6200 nM; in the assay with PANC-1 [6] it was 9700 nM; on PIM-3 kinase, 2.2 nM.
With `COc1ccc2c(c1CC1CCNCC1F)O/C(=C\c1n[nH]c3ncccc13)C2=O` (centres unmarked) [Compound 18, (Z)-2-[(1H-pyrazolo[3,4-b]pyridin-3-yl)methylene]-7-[(3-fluoropiperidin-4-yl)methyl]-6-methoxybenzofuran-3(2H)-one], the IC50 with MiaPaca-2 [1] (Homo sapiens, MIA PaCa-2) came out at 220 nM; with L3.6pl [2] (Homo sapiens, L3.6pl, 72 h) it was 250 nM; with PANC-1 [3] (Homo sapiens, PANC-1, 72 h) it was 420 nM; against PIM-3 kinase, 0.35 nM.
For the compound `COc1ccc2c(c1CC1CCNCC1F)O/C(=C\c1n[nH]c3ncccc13)C2=O` (centres unmarked) [Compound 19, (Z)-2-[(1H-pyrazolo[3,4-b]pyridin-3-yl)methylene]-7-[(3-fluoropiperidin-4-yl)methyl]-6-methoxybenzofuran-3(2H)-one], the IC50 with MiaPaca-2 [1] stood at 220 nM; in the assay with L3.6pl [2], 300 nM; in the assay on PANC-1 [3], 330 nM; at PIM-3 kinase, 0.7 nM.
Consider `CCOc1ccc2c(c1C(C)N1CCNCC1)O/C(=C\c1n[nH]c3ncccc13)C2=O` (centres unmarked) [Compound 22, (Z)-2-[(1H-pyrazolo[3,4-b]pyridin-3-yl)methylene]-6-ethoxy-7-[1-(piperazin-1-yl)ethyl]benzofuran-3(2H)-one], for which the IC50 worked out at 1300 nM with MiaPaca-2 [4]; 2500 nM in the assay on PCI66; 1800 nM with PCI35; 2800 nM in the assay with L3.6pl [5]; 2700 nM in the assay with PANC-1 [6]; 1.3 nM at PIM-3 kinase.
Regarding `CC(c1c(OCC2CC2)ccc2c1O/C(=C\c1n[nH]c3ncccc13)C2=O)N1CCNCC1` (centres unmarked) [Compound 23, (Z)-2-[(1H-pyrazolo[3,4-b]pyridin-3-yl)methylene]-6-(cyclopropylmethoxy)-7-[1-(piperazin-1-yl)ethyl]benzofuran-3(2H)-one], the IC50 with MiaPaca-2 [4] is 3800 nM; in the assay on PCI66, 4200 nM; with PCI35 it was 5300 nM; with L3.6pl [5] it was 9800 nM; with PANC-1 [6], 8000 nM; against PIM-3 kinase, 0.62 nM.
On PIM-3 kinase, `C=C(CN1CCNCC1)c1c(OC)ccc2c1O/C(=C\c1n[nH]c3ncccc13)C2=O` [Compound 24, (Z)-2-[(1H-pyrazolo[3,4-b]pyridin-3-yl)methylene]-6-methoxy-7-[3-(piperazin-1-yl)prop-1-en-2-yl]benzofuran-3(2H)-one] gave an IC50 of 12 nM.
Still for that read-out and setting: then `CN[C@H]1CCN(Cc2c(OC)ccc3c2O/C(=C\c2n[nH]c4ncccc24)C3=O)C1` [Compound 26, (S,Z)-2-[(1H-pyrazolo[3,4-b]pyridin-3-yl)methylene]-6-methoxy-7-{[3-(methylamino)pyrrolidin-1-yl]methyl}benzofuran-3(2H)-one], with 1.1 nM; and `COc1ccc2c(c1C(C)CN1CCNCC1)O/C(=C\c1n[nH]c3ncccc13)C2=O` (centres unmarked) [Compound 27, (Z)-2-[(1H-pyrazolo[3,4-b]pyridin-3-yl)methylene]-6-methoxy-7-[1-(piperazin-1-yl)propan-2-yl]benzofuran-3(2H)-one], with 6.4 nM; and `O=C1/C(=C/c2n[nH]c3ncccc23)Oc2c1ccc(Cl)c2CC1CCNCC1` [Compound 28, (Z)-2-[(1H-pyrazolo[3,4-b]pyridin-3-yl)methylene]-6-chloro-7-(piperidin-4-ylmethyl)benzofuran-3(2H)-one], with 1.3 nM.
Regarding `COc1ccc2c(c1CN1CCC[C@@H]1CN)O/C(=C\c1n[nH]c3ncccc13)C2=O` [Compound 31, (R,Z)-2-[(1H-pyrazolo[3,4-b]pyridin-3-yl)methylene]-7-{[2-(aminomethyl)pyrrolidin-1-yl]methyl}-6-methoxybenzofuran-3(2H)-one], the IC50 at PIM-3 kinase was 0.96 nM.
